Data: US10426850B2, “Collagen mimetic peptides for targeting collagen strands for in vitro and in vivo imaging and therapeutic use” (The Johns Hopkins University, priority 2011, dated 2019)
Entries after “also recorded” stand apart in the source; their conditions may differ.

What was measured:
[1] = target: T1, type I collagen films (fibrillar collagen) (Rattus norvegicus, UniProt P02454+P02466); test: Photo-triggered CMP binding assay on collagen films
T1 construct: Collagen solution (200 μL, 3.71 mg/mL, type I rat tail, BD Science); purchased BD Science; host or cells: rat tail
T1 sequence (P02454 152-1207 limits assumed): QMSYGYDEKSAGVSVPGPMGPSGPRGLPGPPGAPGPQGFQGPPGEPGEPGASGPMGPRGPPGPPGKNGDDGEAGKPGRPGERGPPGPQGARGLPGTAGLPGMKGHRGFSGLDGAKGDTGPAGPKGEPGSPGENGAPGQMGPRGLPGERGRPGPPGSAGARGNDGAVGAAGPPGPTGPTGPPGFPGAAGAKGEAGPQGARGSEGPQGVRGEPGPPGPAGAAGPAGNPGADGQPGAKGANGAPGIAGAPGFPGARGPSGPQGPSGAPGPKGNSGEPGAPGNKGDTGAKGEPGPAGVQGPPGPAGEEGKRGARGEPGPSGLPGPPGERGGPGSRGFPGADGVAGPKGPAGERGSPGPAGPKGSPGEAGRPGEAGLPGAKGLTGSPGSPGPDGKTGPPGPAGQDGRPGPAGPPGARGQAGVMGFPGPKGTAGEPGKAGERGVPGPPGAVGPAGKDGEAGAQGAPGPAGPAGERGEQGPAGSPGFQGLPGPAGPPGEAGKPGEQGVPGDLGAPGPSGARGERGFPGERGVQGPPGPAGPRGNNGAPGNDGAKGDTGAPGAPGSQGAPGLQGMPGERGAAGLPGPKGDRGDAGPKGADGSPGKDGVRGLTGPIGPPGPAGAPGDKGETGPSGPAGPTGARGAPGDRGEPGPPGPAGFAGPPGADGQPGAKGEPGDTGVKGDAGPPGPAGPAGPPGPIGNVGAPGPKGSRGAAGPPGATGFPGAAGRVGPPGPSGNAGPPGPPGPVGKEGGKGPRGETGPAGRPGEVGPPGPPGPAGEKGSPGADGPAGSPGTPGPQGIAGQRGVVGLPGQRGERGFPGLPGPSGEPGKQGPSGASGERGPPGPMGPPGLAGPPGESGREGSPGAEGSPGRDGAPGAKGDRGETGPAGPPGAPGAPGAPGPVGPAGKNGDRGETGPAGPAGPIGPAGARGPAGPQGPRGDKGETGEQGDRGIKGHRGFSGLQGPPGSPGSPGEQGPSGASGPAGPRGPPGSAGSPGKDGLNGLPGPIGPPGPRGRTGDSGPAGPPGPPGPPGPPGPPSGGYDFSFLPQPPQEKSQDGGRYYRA
T1 sequence (P02466 86-1125 limits assumed): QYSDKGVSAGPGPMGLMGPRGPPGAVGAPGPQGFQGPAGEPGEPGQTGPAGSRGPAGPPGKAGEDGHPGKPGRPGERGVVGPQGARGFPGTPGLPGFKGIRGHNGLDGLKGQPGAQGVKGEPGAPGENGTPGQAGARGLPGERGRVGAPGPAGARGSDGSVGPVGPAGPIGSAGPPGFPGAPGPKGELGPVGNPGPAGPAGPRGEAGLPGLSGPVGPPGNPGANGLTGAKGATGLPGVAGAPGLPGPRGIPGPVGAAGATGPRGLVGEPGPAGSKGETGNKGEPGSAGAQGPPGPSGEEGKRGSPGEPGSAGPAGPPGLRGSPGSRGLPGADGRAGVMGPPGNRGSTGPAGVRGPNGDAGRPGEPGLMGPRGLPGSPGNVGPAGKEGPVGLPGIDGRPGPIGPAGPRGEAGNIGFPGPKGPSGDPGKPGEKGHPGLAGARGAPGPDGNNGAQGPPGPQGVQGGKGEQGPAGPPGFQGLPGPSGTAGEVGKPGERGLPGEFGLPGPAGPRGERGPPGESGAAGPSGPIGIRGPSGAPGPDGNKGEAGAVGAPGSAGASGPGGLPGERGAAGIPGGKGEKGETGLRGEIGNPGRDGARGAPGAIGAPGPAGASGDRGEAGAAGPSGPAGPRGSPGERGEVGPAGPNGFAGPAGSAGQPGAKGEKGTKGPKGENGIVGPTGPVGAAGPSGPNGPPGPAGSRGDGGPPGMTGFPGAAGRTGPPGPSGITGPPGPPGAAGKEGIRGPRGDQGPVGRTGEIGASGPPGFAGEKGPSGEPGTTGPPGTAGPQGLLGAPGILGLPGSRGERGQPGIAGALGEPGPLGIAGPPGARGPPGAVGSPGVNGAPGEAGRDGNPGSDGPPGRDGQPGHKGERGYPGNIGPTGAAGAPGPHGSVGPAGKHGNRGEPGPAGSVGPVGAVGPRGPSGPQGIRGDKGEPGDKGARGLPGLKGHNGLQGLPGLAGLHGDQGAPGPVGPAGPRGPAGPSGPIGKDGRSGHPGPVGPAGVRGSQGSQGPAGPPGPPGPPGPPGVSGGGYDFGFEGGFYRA
Description: Collagen/gelatin binding assays. Collagen solution (200 μL, 3.71 mg/mL, type I rat tail, BD Science) in 0.02 N acetic acid was added to each well of a 96-well black/clear-bottom plate (Costar) and air-dried. To make gelatin films, the same collagen solution was denatured at 70° C. for 15 minutes before applying to the well. The dried films were neutralized and washed with 1×PBS buffer (pH 7.4) and deionized water. PBS solution of carboxyfluorescein-labeled caged CMP (40 μL, 50 μM, unless indicated otherwise) pre-equilibrated at 4° C. was added onto each reconstituted collagen or gelatin film and exposed to 365 nm UV light (10 mW/cm^2, from mercury arc lamp) for 11 minutes on ice. Wells for the UV-negative control groups were covered with aluminum foil to block UV exposure. After incubation at 4° C. for over 3 hours (unless indicated otherwise), the unbound materials were removed by rinsing with PBS buffer and deionized water. The films were allowed to dry in dark, after which the fluorescence (ex: 489 nm, em: 533 nm) was measured with a SpectraMax Gemini XPS microplate reader (Molecular Devices). Each binding experiment was done in triplicate.

type I collagen films = target: T2, type I collagen films (Rattus norvegicus, UniProt P02454+P02466); test: Quantification of CF(GPO)9 bound on type I collagen films; type: binding; conditions: UV+, collagenase digestion, standard curve
T2 construct: Collagen solution (200 μL, 3.71 mg/mL, type I rat tail, BD Science); purchased BD Science; host or cells: rat tail
T2 sequence (P02454 152-1207 limits assumed): as the sequence (P02454 152-1207 limits assumed) above
T2 sequence (P02466 86-1125 limits assumed): as the sequence (P02466 86-1125 limits assumed) above
Description: Quantification of CF(GPO)9 (SEQ ID NO: 10) bound on type I collagen films. Following photo-induced binding, CMP-bound collagen films (e.g. the UV+ group of FIG. 10A) were digested with 200 μL of collagenase (Sigma, C0130) solutions (1 mg/mL) in TESCA buffer (50 mM TES buffer with 1.36 mM CaCl2, pH 7.4) for 1 hr at 37° C. The digested solutions were directly used for fluorescence measurement (ex: 489 nm, em: 533 nm). For the standard curve, a series of solutions containing known amounts of CF^NB(GPO)9 (SEQ ID NO: 4) (0 to 0.35 nmol) were applied to blank collagen films and air-dried, followed by collagenase digestion and fluorescence measurement as described above. The amount of bound CF(GPO)9 (SEQ ID NO: 10) was determined by comparing the fluorescence intensity of the digested collagen/CMP solutions with the standard curve, and the binding density was determined by dividing the amount bound by the area of the well. The experiment was performed in triplicate.

fibronectin and laminin = test: SDS-PAGE staining by heat activated fluorescent CMP, other ECM proteins; type: binding, bovine (fibronectin), murine (laminin); conditions: 6 μM, 2 μg protein per lane
Source text: Acid soluble rat-tail type I collagen, bovine type II collagen, and mouse type IV collagen were purchased from BD Bioscience (San Jose, Calif.). Complement component C1q from human serum, fibronectin from bovine plasma, and laminin from Engelbreth-Holm-Swarm murine sarcoma basement membrane were purchased from Sigma-Aldrich. ProMMP-1, and p-aminophenylmercuric acetate were acquired from EMD millipore. Human umbilical vein endothelial cells (HUVECs) and EGM-2 cell growth media were obtained from Lonza (Walkersville, Md.). Precast NuPAGE® Novex 4-12% Bis-Tris Gel (1.0 mm, 12 well), Novex® Sharp unstained protein standard, and SDS-PAGE running buffer, sample buffer, and other SDS-PAGE reagents were purchased from Life Technologies.
SDS-PAGE staining and imaging. Proteins were resolved on NuPAGE® Novex 4-12% bis-tris gels under denaturating conditions using an XCell SureLock™ Mini-Cell electrophoresis system (Life Technologies). NuPAGE® MOPS SDS running buffer containing 50 mM MOPS, 50 mM Tris Base, 0.1% SDS, and 1 mM EDTA (pH 7.7) was used. […] The fluorescence intensities of the protein bands were quantified using GE ImageQuant™ TL software. After fluorescence imaging, all gels were further stained with coomassie brilliant blue (CB) G-250 (Bio-Rad) for 2-3 hr followed by washing, and imaging under white light illumination using a Gel Doc EQ system (BioRad).

CF-GGG-(GPO)4^NBGPO(GPO)4 [CF^NB(GPO)9]
collagen binding with and without UV exposure ([1]; 4° C., intact type I collagen films): collagen binding was observed only after exposing the sample to UV light
binding (fluorescence intensity of film) ([1]; caged, UV−): negligible
density of photo-induced CMP binding to intact collagen (type I collagen films): 0.56±0.03 nmol/cm^2

CF-GGG-(GPO)9 [CF(GPO)9]
CMP binding lower by a factor of, compared to UV-triggered binding of CF^NB(GPO)9 ([1]; non-caged, triple helical, with UV exposure, 4° C.): 11
heat-induced binding level compared to photo-triggered caged CF^NB(GPO)9 ([1]; thermally melted at 75° C., non-caged): significantly elevated binding levels; also recorded: significantly higher binding level
staining of fibronectin and laminin bands (fibronectin and laminin): no affinity to fibronectin and laminin
